Among the data in patent US11512053B2, “Arginine methyltransferase inhibitors and uses thereof” (priority 2013, dated 2022) are IC50 and EC30 values, retold here.

Like-named read-outs stand apart in the source and are kept apart here.

Assay [1] deals with full-length human PRMT6 (Flag- and His-tagged) (Homo sapiens, UniProt Q96LA8). Briefly: PRMT6 Biochemical Assay (3H-SAM Flashplate, peptide substrate). The note with it: read-out: Biochemical IC50 PRMT6. From the text:
General Materials. S-adenosylmethionine (SAM), S-adenosylhomocysteine (SAH), bicine, Tween20, dimethylsulfoxide (DMSO), bovine skin gelatin (BSG), sodium butyrate and Tris(2-carboxyethyl)phosphine hydrochloride solution (TCEP) were purchased from Sigma-Aldrich at the highest level of purity possible. ^3H-SAM was purchase from American Radiolabeled Chemicals with a specific activity of 80 Ci/mmol. 384-well streptavidin Flashplates were purchased from PerkinElmer.
Substrates. Peptide representative of human histone H4 residues 36-50 was synthesized with an N-terminal linker-affinity tag motif and a C-terminal amide cap by 21st Century Biochemicals. The peptide was purified by high-performance liquid chromatography (HPLC) to greater than 95% purity and confirmed by liquid chromatography mass spectrometry (LC-MS). The sequence was Biot-Ahx-[…]-amide and contained a monomethylated lysine at position 44 (SEQ ID NO.:5).
Molecular Biology: Full-length human PRMT6 (NM_018137.2) transcript clone was amplified from an HEK 293 cDNA library, incorporating a flanking 5′ sequence encoding a FLAG tag ([…]) (SEQ ID NO.:6) fused directly to Ser 2 of PRMT6 and a 3′ sequence encoding a hexa His sequence (HHHHHH) (SEQ ID NO.:17) fused directly to Asp 375. The amplified gene was subcloned into pFastBacMam (Viva Biotech).
Protein Expression. Recombinant baculovirus were generated according to Bac-to-Bac kit instructions (Life Technologies). […] Infections were carried out at 37° C. for 48 hours, harvested by centrifugation, and stored at −80° C. for purification.
Protein Purification. […] Column was washed with 20 mM imidazole in the same buffer and Flag-PRMT6-His was eluted with 150 mM imidazole. Pooled fractions were dialysed against buffer N^1-A and further purified by anti-flag M2 affinity chromatography. Flag-PRMT6-His was eluted with 200 ug/ml FLAG peptide in the same buffer. Pooled fractions were dialysed in 20 mM Tris, 150 mM NaCl, 10% glycerol and 5 mM β-mercaptoethanol, pH 7.8. The purity of recovered protein was 95%.
General Procedure for PRMT6 Enzyme Assays on Peptide Substrates. The assays were all performed in a buffer consisting of 20 mM Bicine (pH=7.6), 1 mM TCEP, 0.005% BSG, and 0.002% Tween 20, prepared on the day of use. Compounds in 100% DMSO (1 ul) were spotted into a polypropylene 384-well V-bottom plates (Greiner) using a Platemate Plus outfitted with a 384-channel head (Thermo Scientific). DMSO (1 ul) was added to Columns 11, 12, 23, 24, rows A-H for the maximum signal control and 1 ul of SAH, a known product and inhibitor of PRMT6, was added to columns 11, 12, 23, 24, rows I-P for the minimum signal control. A cocktail (40 ul) containing the PRMT6 enzyme was added by Multidrop Combi (Thermo-Fisher). The compounds were allowed to incubate with PRMT6 for 30 min at room temperature, then a cocktail (10 ul) containing SAM and peptide was added to initiate the reaction (final volume=51 ul). The final concentrations of the components were as follows: PRMT6 was 1 nM, ^3H-SAM was 200 nM, non-radiolabeled SAM was 250 nM, peptide was 75 nM, SAH in the minimum signal control wells was 1 mM, and the DMSO concentration was 2%. The assays were stopped by the addition of non-radiolabeled SAM (10 ul) to a final concentration of 400 uM, which dilutes the ^3H-SAM to a level where its incorporation into the peptide substrate is no longer detectable. 50 ul of the reaction in the 384-well polypropylene plate was then transferred to a 384-well Flashplate and the biotinylated peptides were allowed to bind to the streptavidin surface for at least 1 hour before being washed once with 0.1% Tween20 in a Biotek ELx405 plate washer. The plates were then read in a PerkinElmer TopCount plate reader to measure the quantity of ^3H-labeled peptide bound to the Flashplate surface, measured as disintegrations per minute (dpm) or alternatively, referred to as counts per minute (cpm). […]

For assay [2], the system named is mono-methyl arginine in RKO cells. Briefly: RKO Methylation Assay, In Cell Western (ICW) for detection of mono-methyl arginine and DNA content. Format: cell-based. The note with it: Homo sapiens, RKO, 72 h, RKO cells, read-out: In Cell Western EC30. From the text:
RKO adherent cells were purchased from ATCC (American Type Culture Collection), Manassas, Va., USA. DMEM/Glutamax medium, penicillin-streptomycin, heat inactivated fetal bovine serum, 0.05% trypsin and D-PBS were purchased from Life Technologies, Grand Island, N.Y., USA. Odyssey blocking buffer, 800 CW goat anti-rabbit IgG (H+L) antibody, and Licor Odyssey infrared scanner were purchased from Licor Biosciences, Lincoln, Nebr., USA. Mono-methyl arginine antibody was purchased from Cell Signaling Technology, Danvers, Mass., USA. Methanol was purchased from VWR, Franklin, Mass., USA. 10% Tween 20 was purchased from KPL, Inc., Gaithersburg, Md., USA. DRAQ5 was purchased from Biostatus Limited, Leicestershire, UK.
RKO adherent cells were maintained in growth medium (DMEM/Glutamax medium supplemented with 10% v/v heat inactivated fetal bovine serum and 100 units/mL penicillin-streptomycin) and cultured at 37° C. under 5% CO2.
Cell treatment, In Cell Western (ICW) for detection of mono-methyl arginine and DNA content. […] Compound (100 nL) from a 96-well source plate was added directly to 384 well cell plate. Plates were incubated at 37° C., 5% CO2 for 72 hours. After three days of incubation, plates were brought to room temperature outside of the incubator for ten minutes and blotted on paper towels to remove cell media. 50 μL of ice cold 100% methanol was added directly to each well and incubated for 30 min at room temperature. After 30 min, plates were transferred to a Biotek EL406 plate washer and washed 2 times with 100 μL per well of wash buffer (1×PBS). Next 60 μL per well of Odyssey blocking buffer (Odyssey Buffer with 0.1% Tween 20 (v/v)) were added to each plate and incubated 1 hour at room temperature. Blocking buffer was removed and 20 μL per well of primary antibody was added (mono-methyl arginine diluted 1:200 in Odyssey buffer with 0.1% Tween 20 (v/v)) and plates were incubated overnight (16 hours) at 4° C. Plates were washed 5 times with 100 μL per well of wash buffer. […] The plates were washed 5 times with 100 μL per well wash buffer then 2 times with 100 μL per well of water. Plates were allowed to dry at room temperature then imaged on the Licor Odyssey machine which measures integrated intensity at 700 nm and 800 nm wavelengths. Both 700 and 800 channels were scanned.
Calculations: First, the ratio for each well was determined by:
Each plate included fourteen control wells of DMSO only treatment (minimum activation) as well as fourteen control wells for maximum activation treated with 20 μM of a reference compound. The average of the ratio values for each control type was calculated and used to determine the percent activation for each test well in the plate. Reference compound was serially diluted three-fold in DMSO for a total of nine test concentrations, beginning at 20 μM. Percent activation was determined and EC30 curves were generated using triplicate wells per concentration of compound.

Setting [3] is: single experiment or average of multiple experiments.
[4] abbreviates: 72 hours compound incubation, mono-methyl arginine signal normalised to DNA content (DRAQ5), percent activation vs 20 μM reference compound.
The mark [5] stands for this setting: 72 hours incubation, mono-methyl arginine signal normalised to DNA content, single experiment or average of multiple experiments.

Usually IC50 stands for the concentration that gives 50% inhibition. As usually defined, the EC30 is the point of the concentration-response curve where the effect stands at 30%.

Chain of full-length human PRMT6 (Flag- and His-tagged) (Q96LA8 with tags, fused parts or gaps): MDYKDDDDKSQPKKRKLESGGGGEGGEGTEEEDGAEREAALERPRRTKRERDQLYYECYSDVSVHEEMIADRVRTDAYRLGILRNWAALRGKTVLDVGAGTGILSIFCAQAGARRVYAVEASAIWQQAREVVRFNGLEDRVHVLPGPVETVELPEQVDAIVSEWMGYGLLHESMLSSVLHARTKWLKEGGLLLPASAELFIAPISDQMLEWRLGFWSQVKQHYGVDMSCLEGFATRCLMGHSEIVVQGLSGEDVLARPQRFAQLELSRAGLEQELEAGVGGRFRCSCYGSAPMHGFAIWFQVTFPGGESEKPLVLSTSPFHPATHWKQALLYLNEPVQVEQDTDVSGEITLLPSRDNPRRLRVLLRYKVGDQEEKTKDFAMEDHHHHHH

Regarding `CCOCC1CC(COCC)CC(c2n[nH]cc2CN(C)CCNC)C1` (stereo not shown) [Compound 119], the concentration for half-maximal inhibition (IC50) was 1010 to 3000 nM in assay [1] and 2750 nM in assay [1] (setting [3]). For the same compound, the EC30 is less than 3000 nM in assay [2] (setting [4]) and 77.3 nM in assay [2] (setting [5]).
As to `CNCCN(C)Cc1c[nH]nc1[C@H]1CC[C@@]2(CCN(Cc3ccc(OCCOC)cc3)C2=O)CC1` [Compound 120], the IC50 in assay [1] is less than 100 nM; in assay [1] (setting [3]), 42.8 nM. Besides, the EC30 was less than 3000 nM in assay [2] (setting [4]) and 9.8 nM in assay [2] (setting [5]).
Consider `CNCCN(C)Cc1c[nH]nc1C1CC(OCC(C)C)CC(OCC(C)C)C1` (stereo not shown) [Compound 122], for which the IC50 in assay [1] and in assay [1] (setting [3]) was more than 10000 nM throughout. In addition, the EC30 in assay [2] (setting [5]) was determined as 346 nM.
In the case of `CNCCN(C)Cc1c[nH]nc1[C@H]1CC[C@]2(CCN(Cc3ccc(F)cc3)C2=O)CC1` [Compound 123], the IC50 in assay [1] was less than 100 nM; in assay [1] (setting [3]), 18 nM. The EC30 is less than 3000 nM in assay [2] (setting [4]) and 44 nM in assay [2] (setting [5]).
Taken in the same sequence, the figures for `CNCCN(C)Cc1c[nH]nc1[C@H]1CC[C@]2(CCN(CC(C)C)C2=O)CC1` [Compound 124] were less than 100 nM, 26.2 nM, less than 3000 nM and 21.4 nM.
Regarding `CNCCN(C)Cc1c[nH]nc1[C@H]1CC[C@@]2(CCN(Cc3ccc(F)cc3)C2=O)CC1` [Compound 125], the values for the concentration for half-maximal inhibition (IC50) in assay [1] and in assay [1] (setting [3]) were less than 100 nM and 13.1 nM, respectively. The EC30 in assay [2] (setting [4]) was less than 3000 nM; in assay [2] (setting [5]), 87.6 nM.
Regarding `CNCCN(C)Cc1c[nH]nc1[C@H]1CC[C@@]2(CCN(Cc3cc(F)cc(F)c3)C2=O)CC1` [Compound 126], the half-maximal inhibitory concentration (IC50) in assay [1] is less than 100 nM; in assay [1] (setting [3]), 9.4 nM. Also, the EC30 in assay [2] (setting [4]) was less than 3000 nM; in assay [2] (setting [5]) it was 638 nM.
As to `CNCCN(C)Cc1c[nH]nc1[C@H]1CC[C@@]2(CCN(Cc3ccccc3)C2=O)CC1` [Compound 127], the IC50 in assay [1] was less than 100 nM; in assay [1] (setting [3]) it was 22.3 nM. Further, the EC30 in assay [2] (setting [4]) was less than 3000 nM; in assay [2] (setting [5]), 29.2 nM.
Taken in the same sequence, the figures for `CNCCN(C)Cc1c[nH]nc1[C@H]1CC[C@]2(CCN(Cc3ccccc3)C2=O)CC1` [Compound 128] were less than 100 nM, 13.1 nM, less than 3000 nM and 1080 nM.
Turning to `CNCCN(C)Cc1c[nH]nc1[C@H]1CC[C@@]2(CCN(CC(C)C)C2=O)CC1` [Compound 129], the results for the concentration for half-maximal inhibition (IC50) in assay [1] and in assay [1] (setting [3]) were less than 100 nM and 29.7 nM, respectively. Moreover, the EC30 in assay [2] (setting [4]) is less than 3000 nM; in assay [2] (setting [5]) it was 4.5 nM.
For the compound `CCOC1CC(OCC)CC(c2n[nH]cc2CN(C)CCNC)C1` (stereo not shown) [Compound 132], the IC50 is 3010 to 10000 nM in assay [1] and 5500 nM in assay [1] (setting [3]). Further, the EC30 in assay [2] (setting [5]) was 3.8 nM.
In the case of `CNCCN(C)Cc1c[nH]nc1C1CCC(OCCOc2ccccc2)CC1` (stereo not shown) [Compound 136], the results for the IC50 in assay [1] and in assay [1] (setting [3]) were less than 100 nM and 7.2 nM, respectively. In addition, the EC30 was less than 3000 nM in assay [2] (setting [4]) and 35 nM in assay [2] (setting [5]).
For the compound `CNCCN(C)Cc1c[nH]nc1C1CCC2(CCCCO2)CC1` (stereo not shown) [Compound 137], the figures for the 50% inhibitory concentration (IC50) in assay [1] and in assay [1] (setting [3]) were less than 100 nM and 23.3 nM, respectively. The EC30 was less than 3000 nM in assay [2] (setting [4]) and 15 nM in assay [2] (setting [5]).
With `CNCCN(C)Cc1c[nH]nc1[C@H]1CC[C@H](OC2CCCCC2)CC1` [Compound 139], the values for the IC50 in assay [1] and in assay [1] (setting [3]) were less than 100 nM and 22.6 nM, respectively. The EC30 in assay [2] (setting [4]) was less than 3000 nM; in assay [2] (setting [5]) it was 627 nM.
For `CNCCN(C)Cc1c[nH]nc1[C@H]1CC[C@@H](OC2CCCCC2)CC1` [Compound 140], the IC50 in assay [1] is less than 100 nM; in assay [1] (setting [3]), 24 nM. Also, the figures for the EC30 in assay [2] (setting [4]) and in assay [2] (setting [5]) were less than 3000 nM and 164 nM, respectively.
Regarding `CNCCN(C)Cc1c[nH]nc1[C@H]1CC[C@@]2(CCOC2)CC1` [Compound 141], the IC50 in assay [1] was less than 100 nM; in assay [1] (setting [3]), 23 nM. The EC30 in assay [2] (setting [4]) is less than 3000 nM; in assay [2] (setting [5]), 132 nM.
As to `CNCCN(C)Cc1c[nH]nc1[C@H]1CC[C@]2(CCOC2)CC1` [Compound 142], the IC50 in assay [1] is less than 100 nM; in assay [1] (setting [3]), 19.9 nM. In addition, the 30% effect concentration (EC30) is less than 3000 nM in assay [2] (setting [4]) and 52 nM in assay [2] (setting [5]).
Taken in the same sequence, the figures for `CNCCN(C)Cc1c[nH]nc1[C@H]1CC[C@@]2(CCCO2)CC1` [Compound 143] were less than 100 nM, 22 nM, less than 3000 nM and 59 nM.
Regarding `CNCCN(C)Cc1c[nH]nc1C1CCC2(CC1)CC2` [Compound 144], the IC50 was less than 100 nM in assay [1] and 35.6 nM in assay [1] (setting [3]). Also, the EC30 in assay [2] (setting [4]) was less than 3000 nM; in assay [2] (setting [5]), 63 nM.
Taken in the same sequence, the figures for `CNCCN(C)Cc1c[nH]nc1C1CCC2(CC1)CN(CC(C)C)C(=O)N2C` (stereo not shown) [Compound 145] were less than 100 nM, 38 nM, less than 3000 nM and 2300 nM.
Taken in the same sequence, the figures for `CNCCN(C)Cc1c[nH]nc1C1CCC2(CC1)CC(=O)N(Cc1ccc(OC)cc1)C2` (stereo not shown) [Compound 146] were less than 100 nM, 21.7 nM, less than 3000 nM and 160 nM.
